In patent US9085555B2, “Complement pathway modulators and uses thereof” (priority 2011, dated 2015) one finds IC50 data, which are given here for eleven molecules.

The target in the test is Factor D (Homo sapiens (Human), UniProt P00746). Nature of the test: biochemical. The format is biochemical. The note with it: read-out: IC50.
Sequence of Factor D (P00746 26-253): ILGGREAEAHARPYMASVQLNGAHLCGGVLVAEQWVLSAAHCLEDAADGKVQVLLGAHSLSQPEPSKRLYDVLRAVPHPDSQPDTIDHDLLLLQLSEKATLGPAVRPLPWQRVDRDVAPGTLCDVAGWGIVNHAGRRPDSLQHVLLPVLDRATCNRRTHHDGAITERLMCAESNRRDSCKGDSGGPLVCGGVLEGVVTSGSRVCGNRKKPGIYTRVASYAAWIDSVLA
For the molecule `CC(=O)c1cn(CC(=O)N2C[C@H](F)[C@@H](F)[C@H]2C(=O)NCc2cccc(Cl)c2F)c2ccccc12` [Example 773, (2R,3S,4S)-1-[2-(3-Acetyl-indol-1-yl)-acetyl]-3,4-difluoro-pyrrolidine-2-carboxylic acid 3-chloro-2-fluoro-benzylamide], the IC50 (usually the point on the concentration scale where inhibition reaches its midpoint) came out at 28 nM. The figure for `C[C@H]1CC[C@@H](C(=O)Nc2cccc(OC(F)(F)F)c2)N1C(=O)Nc1cn(C(N)=O)c2ccccc12` [Example 337, (2S,5S)-5-Methyl-pyrrolidine-1,2-dicarboxylic acid 1-[(1-carbamoyl-1H-indol-3-yl)-amide]2-[(3-trifluoromethoxy-phenyl)-amide]] is 250 nM; for `NC(=O)n1cc(NC(=O)N2C[C@H](F)C[C@H]2CNCc2cccc(Cl)c2F)c2ccccc21` [Example 116, 3-({(2S,4R)-2-[(3-Chloro-2-fluoro-benzylamino)-methyl]-4-fluoro-pyrrolidine-1-carbonyl}-amino)-indole-1-carboxylic acid amide] it is 1150 nM.

With `C[C@@]1(F)C[C@@H](C(=O)NCc2cccc(Cl)c2F)N(C(=O)Cn2cc(C(N)=O)c3ccccc32)C1` [Example 496, 1-{2-[(2S,4R)-2-(3-Chloro-2-fluoro-benzylcarbamoyl)-4-fluoro-4-methyl-pyrrolidin-1-yl]-2-oxo-ethyl}-1H-indole-3-carboxylic acid amide], the IC50 came to 176 nM. With `NC(=O)n1cc(NC(=O)N2C[C@@H](N)C[C@H]2C(=O)NCCc2cc(F)cc(Cl)c2)c2ccccc21` [Example 90, (2S,4S)-4-Amino-pyrrolidine-1,2-dicarboxylic acid 1-[(1-carbamoyl-1H-indol-3-yl)-amide] 2-{[2-(3-chloro-5-fluoro-phenyl)-ethyl]-amide}], the IC50 is 1150 nM.

As for `NC(=O)n1cc(NC(=O)N2C[C@@H](N)C[C@H]2C(=O)NCc2cc(Cl)cc(Cl)c2)c2ccccc21` [Example 60, (2S,4S)-4-Amino-pyrrolidine-1,2-dicarboxylic acid 1-[(1-carbamoyl-1H-indol-3-yl)-amide] 2-(3,5-dichloro-benzylamide)], the half-maximal inhibitory concentration (IC50) worked out at 800 nM. The figure for `COC(=O)c1ccc2c(c1)c(C(C)=O)cn2CC(=O)N1[C@@H]2C[C@@H]2C[C@H]1C(=O)NCc1cccc(Cl)c1F` [Example 540, 3-Acetyl-1-{2-[(1R,3S,5R)-3-(3-chloro-2-fluoro-benzylcarbamoyl)-2-aza-bicyclo[3.1.0]hex-2-yl]-2-oxo-ethyl}-1H-indole-5-carboxylic acid methyl ester] is 236 nM; for `NC(=O)n1cc(NC(=O)N2C[C@@H](N)C[C@H]2C(=O)NCc2cccc(Br)c2)c2ccccc21` [Example 34, (2S,4S)-4-Amino-pyrrolidine-1,2-dicarboxylic acid 2-(3-bromo-benzylamide) 1-[(1-carbamoyl-1H-indol-3-yl)-amide]] it is 90 nM; for `CC(=O)c1cn(CC(=O)N2[C@@H]3C[C@@H]3C[C@H]2C(=O)NCc2cccc(Cl)c2F)c2cc(-c3nnn[nH]3)ccc12` [Example 618, (1R,3S,5R)-2-{2-[3-Acetyl-6-(1H-tetrazol-5-yl)-indol-1-yl]-acetyl}-2-aza-bicyclo[3.1.0]hexane-3-carboxylic acid 3-chloro-2-fluoro-benzylamide] it is 39 nM. For the molecule `COc1ccc2c(c1)c(C=O)cn2CC(=O)N1C[C@H](F)C[C@H]1C(=O)NCc1cccc(Cl)c1F` [Example 560, (2S,4R)-4-Fluoro-1-[2-(3-formyl-5-methoxy-indol-1-yl)-acetyl]-pyrrolidine-2-carboxylic acid 3-chloro-2-fluoro-benzylamide], the IC50 amounted to 141 nM. As for `NC(=O)n1cc(NC(=O)N2C[C@@H](N)C[C@H]2C(=O)NCc2cccc(OC(F)(F)F)c2)c2ccccc21` [Example 37, (2S,4S)-4-Amino-pyrrolidine-1,2-dicarboxylic acid 1-[(1-carbamoyl-1H-indol-3-yl)-amide] 2-(3-trifluoromethoxy-benzylamide)], the IC50 came to 22000 nM.
